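Step 1: Grow cells in 96-well plates. Step 2: Expose to compound for 48 hours at 5 concentrations. Step 3: Interpolate endpoints linearly; if unreached, use highest concentration. Definition used: TGI = concentration required for complete inhibition of growth.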
Legend:
Assay in all cases: NCI-60 cell line screen, 48 h
HOP-62 NSCLC = test system: HOP-62 NSCLC
HT29 colon = test system: HT29 colon
MALME-3M melanoma = test system: MALME-3M melanoma
HCT-15 colon = test system: HCT-15 colon
UO-31 renal = test system: UO-31 renal
SK-MEL-5 melanoma = test system: SK-MEL-5 melanoma
OVCAR-5 ovarian = test system: OVCAR-5 ovarian
MDA-MB-435 = test system: MDA-MB-435
SR leukemia = test system: SR leukemia
HOP-92 NSCLC = test system: HOP-92 NSCLC
SK-MEL-2 melanoma = test system: SK-MEL-2 melanoma
IGROV1 ovarian = test system: IGROV1 ovarian
MOLT-4 leukemia = test system: MOLT-4 leukemia
EKVX NSCLC = test system: EKVX NSCLC
M14 melanoma = test system: M14 melanoma
OVCAR-3 ovarian = test system: OVCAR-3 ovarian
TK-10 renal = test system: TK-10 renal
HS 578T breast = test system: HS 578T breast

Structure (SMILES) | TGI (HOP-62 NSCLC) [µM] | TGI (HT29 colon) [µM] | TGI (MALME-3M melanoma) [µM] | TGI (HCT-15 colon) [µM] | TGI (UO-31 renal) [µM] | TGI (SK-MEL-5 melanoma) [µM] | TGI (OVCAR-5 ovarian) [µM] | TGI (MDA-MB-435) [µM] | TGI (SR leukemia) [µM] | TGI (HOP-92 NSCLC) [µM] | TGI (SK-MEL-2 melanoma) [µM] | TGI (IGROV1 ovarian) [µM] | TGI (MOLT-4 leukemia) [µM] | TGI (EKVX NSCLC) [µM] | TGI (M14 melanoma) [µM] | TGI (OVCAR-3 ovarian) [µM] | TGI (TK-10 renal) [µM] | TGI (HS 578T breast) [µM]
c1ccc2c(c1)nn1c3ccc4nonc4c3[n-][n+]21 | > 100 | > 100 | > 100 | > 100 | > 100 | > 100 | > 100 | > 100 | > 100 | > 100 | > 100 | > 100 | > 100 | > 100 | > 100 | > 100 | – | –
CCOC(=O)C(C)Sc1nnc(COc2ccc(Cl)cc2)n1-c1ccccc1 (stereo unspecified) | 37.5 | 31.9 | 63.6 | 27.8 | 28 | 35.8 | 94.8 | – | – | 44 | 28.4 | 50.3 | – | 83.5 | 30.9 | 33.5 | 69.9 | –
CC1=NN(c2nc(N)nc(CSc3cc(Cl)c(C)cc3S(N)(=O)=O)n2)C(C)(C)C1 | > 10 | > 10 | > 10 | > 10 | 0.953 | > 10 | > 10 | > 10 | – | – | > 10 | > 10 | > 10 | > 10 | > 10 | > 10 | > 10 | > 10
CC(C)(C)C1CCC2c3c([nH]c4ncccc34)C3C(=O)N(c4ccccc4)C(=O)C3C2C1 (stereo unspecified) | > 100 | > 100 | > 100 | > 100 | > 100 | > 100 | > 100 | – | > 100 | > 100 | > 100 | > 100 | > 100 | > 100 | > 100 | > 100 | > 100 | –
Cc1ccc(/C=C/C(=N/NC(=O)N/N=C(/C=C/c2ccc(C)cc2)C(C)C)C(C)C)cc1 | > 10 | > 10 | > 10 | > 10 | > 10 | – | > 10 | > 10 | > 10 | > 10 | > 10 | – | > 10 | > 10 | > 10 | > 10 | > 10 | –
Cc1c(O)c(OC2OC(CO)C(O)C(O)C2O)cc2c1C=C[C@@H]1[C@@]2(C)C(=O)C[C@]2(C)[C@@H]([C@@](C)(O)C(O)/C=C/C(C)(C)O)[C@H](O)C[C@@]12C (stereo partly specified) | > 100 | > 100 | > 100 | > 100 | > 100 | > 100 | > 100 | > 100 | > 100 | > 100 | > 100 | > 100 | > 100 | > 100 | > 100 | > 100 | > 100 | –
COc1ccc2c(c1)CC1COc3cc(OC)ccc3C1O2 (stereo unspecified) | > 100 | > 100 | > 100 | > 100 | > 100 | > 100 | > 100 | > 100 | > 100 | > 100 | > 100 | > 100 | > 100 | > 100 | > 100 | > 100 | > 100 | –
